Data reported in patent US20240246932A1 (Merck Sharp & Dohme LLC, priority 2021, published 2024).

target: human NaV 1.8 channels stably expressed in HEK 293 cells (Homo sapiens (Human), UniProt Q9Y5Y9); assay: Nav1.8 Qube automated patch-clamp assay; assay type: cell-based; conditions: human NaV1.8 in HEK 293 cells, whole-cell voltage clamp, room temperature; read-out: IC50 values (nM) for Examples in the Nav1.8 Qube Assay
Method in brief: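 Whole-cell voltage clamp at room temperature on HEK293 cells; from −90 mV, a 10 s 1 Hz train of 20 ms pulses to 10 mV (repolarising to −67 mV) was applied. Peak currents at pulses 1 and 10 gave resting- and inactivated-state inhibition; IC50 fitted by Hill equation. Internal CsF/CsCl buffer.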

Sequence of human NaV 1.8 channels stably expressed in HEK 293 cells (Q9Y5Y9 whole entry): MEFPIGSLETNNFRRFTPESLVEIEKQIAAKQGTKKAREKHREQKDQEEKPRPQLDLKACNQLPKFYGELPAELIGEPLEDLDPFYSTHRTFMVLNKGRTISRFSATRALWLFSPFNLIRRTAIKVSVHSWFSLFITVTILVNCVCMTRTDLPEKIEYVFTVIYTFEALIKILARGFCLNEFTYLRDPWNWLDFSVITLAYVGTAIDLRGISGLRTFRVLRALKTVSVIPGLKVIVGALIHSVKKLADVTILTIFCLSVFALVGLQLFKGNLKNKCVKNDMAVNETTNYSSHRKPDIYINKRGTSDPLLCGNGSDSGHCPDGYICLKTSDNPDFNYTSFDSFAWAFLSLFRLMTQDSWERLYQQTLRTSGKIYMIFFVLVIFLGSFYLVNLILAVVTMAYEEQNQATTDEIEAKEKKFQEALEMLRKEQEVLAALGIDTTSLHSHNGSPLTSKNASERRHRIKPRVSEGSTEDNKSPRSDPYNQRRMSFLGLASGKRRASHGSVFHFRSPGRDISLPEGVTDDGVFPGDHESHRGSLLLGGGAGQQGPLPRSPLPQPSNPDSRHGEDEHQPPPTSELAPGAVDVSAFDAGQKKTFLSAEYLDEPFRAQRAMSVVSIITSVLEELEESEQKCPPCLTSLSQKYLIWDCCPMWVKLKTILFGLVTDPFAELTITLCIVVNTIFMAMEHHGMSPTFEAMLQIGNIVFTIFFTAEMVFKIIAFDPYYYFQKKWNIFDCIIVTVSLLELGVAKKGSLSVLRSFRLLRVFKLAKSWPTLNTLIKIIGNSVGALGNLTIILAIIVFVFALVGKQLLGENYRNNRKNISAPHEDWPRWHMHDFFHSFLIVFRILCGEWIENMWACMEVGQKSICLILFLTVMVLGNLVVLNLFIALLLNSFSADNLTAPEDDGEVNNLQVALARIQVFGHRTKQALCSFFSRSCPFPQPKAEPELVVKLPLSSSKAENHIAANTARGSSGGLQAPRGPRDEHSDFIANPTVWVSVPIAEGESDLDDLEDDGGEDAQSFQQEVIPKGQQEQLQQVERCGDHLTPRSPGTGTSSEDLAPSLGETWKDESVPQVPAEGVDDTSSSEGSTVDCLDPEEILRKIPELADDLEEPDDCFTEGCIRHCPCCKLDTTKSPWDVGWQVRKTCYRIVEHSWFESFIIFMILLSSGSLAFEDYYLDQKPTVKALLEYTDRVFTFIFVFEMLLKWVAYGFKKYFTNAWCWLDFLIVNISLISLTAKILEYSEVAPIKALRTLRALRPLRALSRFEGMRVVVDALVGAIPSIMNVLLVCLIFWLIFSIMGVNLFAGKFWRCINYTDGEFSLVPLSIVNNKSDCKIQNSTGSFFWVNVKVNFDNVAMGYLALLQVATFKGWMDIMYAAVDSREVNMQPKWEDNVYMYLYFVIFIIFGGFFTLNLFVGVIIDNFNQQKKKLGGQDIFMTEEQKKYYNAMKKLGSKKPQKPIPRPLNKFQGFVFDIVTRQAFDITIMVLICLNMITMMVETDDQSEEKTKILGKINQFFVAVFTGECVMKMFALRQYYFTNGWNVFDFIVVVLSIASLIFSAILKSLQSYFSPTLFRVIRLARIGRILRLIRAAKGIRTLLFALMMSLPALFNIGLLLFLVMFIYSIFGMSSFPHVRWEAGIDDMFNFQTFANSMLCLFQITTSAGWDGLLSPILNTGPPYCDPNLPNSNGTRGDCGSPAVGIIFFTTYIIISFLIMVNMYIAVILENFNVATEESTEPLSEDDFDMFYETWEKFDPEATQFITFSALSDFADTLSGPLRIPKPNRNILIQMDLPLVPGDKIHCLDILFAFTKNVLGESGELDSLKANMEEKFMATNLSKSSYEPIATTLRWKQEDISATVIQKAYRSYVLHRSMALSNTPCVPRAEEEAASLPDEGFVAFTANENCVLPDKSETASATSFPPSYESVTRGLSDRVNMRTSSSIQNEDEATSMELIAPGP

Compound	IC50 [nM]
C[C@@H]1C(=O)NCCN1C(=O)NC(c1cnc(OCC(F)(F)F)c(F)c1)c1ccc(F)c(Cl)c1F (single isomer, unassigned) [Example 10B, (2R)-N-((S or R)-(3-chloro-2,4-difluorophenyl)(5-fluoro-6-(2,2,2-trifluoroethoxy)pyridin-3-yl)methyl)-2-methyl-3-oxopiperazine-1-carboxamide]	28
C[C@@H]1C(=O)NCCN1C(=O)NC(c1ccc(F)c(Cl)c1)c1cc(C(F)(F)F)n[nH]1 (single isomer, unassigned) [Example 85A]	57.8
C[C@@H]1C(=O)NCCN1C(=O)NC(c1ccc(C(F)(F)F)nc1)c1ccc(F)c(Cl)c1F (single isomer, unassigned) [Example 15A]	4.74
C[C@@H]1C(=O)NCCN1C(=O)NC(c1ccc(OCC(F)(F)F)nc1)c1ccc(F)c(F)c1 (single isomer, unassigned) [Example 6A, (2R)-N-((R or S)-(3,4-difluorophenyl)(6-(2,2,2-trifluoro-ethoxy)pyridin-3-yl)methyl)-2-methyl-3-oxopiperazine-1-carboxamide]	20
C[C@@H]1C(=O)NCCN1C(=O)NC(c1cnc(C(F)(F)F)s1)c1ccc(F)c(Cl)c1F (single isomer, unassigned) [Example 62A]	197
C[C@@H]1C(=O)NCCN1C(=O)NC(c1ccc(F)c(Cl)c1)c1ccn(C(F)F)n1 (single isomer, unassigned) [Example 66B]	82.3
C[C@@H]1C(=O)NCCN1C(=O)NC(c1ccnc(OCC(F)(F)F)c1)c1ccc(F)c(Cl)c1 (single isomer, unassigned) [Example 71B, (2R)-N-((S or R)-(3-chloro-4-fluorophenyl)(2-(2,2,2-trifluoro-ethoxy)pyridin-4-yl)methyl)-2-methyl-3-oxopiperazine-1-carboxamide]	2.76
C[C@@H]1C(=O)NCCN1C(=O)NC(c1ccc(Cl)cc1)c1ccnc(C(F)(F)F)n1 (single isomer, unassigned) [Example 68B]	761
C[C@@H]1C(=O)NCCN1C(=O)NC(c1ccc(C2CC2)nc1)c1ccc(F)c(Cl)c1F (single isomer, unassigned) [Example 33A, (2R)-N-((R or S)-(3-chloro-2,4-difluoro-phenyl)(6-cyclo-propylpyridin-3-yl)methyl)-2-methyl-3-oxopiperazine-1-carboxamide]	14.4
C[C@@H]1C(=O)NCCN1C(=O)NC(c1ccc(Cl)cc1)c1ccnc(C(F)(F)F)n1 (single isomer, unassigned) [Example 68A]	34.9
C[C@@H]1C(=O)NCCN1C(=O)NC(c1ccc(OC2CC2)c(F)c1)c1cnc(C(F)(F)F)c(Cl)c1 (single isomer, unassigned) [Example 25A, (2R)-N-((R or S)-(5-chloro-6-(trifluoro-methyl)pyridin-3-yl)(4-cyclopropoxy-3-fluorophenyl)methyl)-2-methyl-3-oxopiperazine-1-carboxamide]	3.51
C[C@@H]1C(=O)NCCN1C(=O)NC(c1ccc(F)c(Cl)c1)c1ccc2nc(C(F)(F)F)cn2c1 (single isomer, unassigned) [Example 11A, (2R)-N-((R or S)-(3-chloro-4-fluoro-phenyl)(2-(trifluoro-methyl)imidazo[1,2-a]pyridin-6-yl)-methyl)-2-methyl-3-oxopiperazine-1-carboxamide]	67.4
C[C@@H]1C(=O)NCCN1C(=O)NC(c1ccc(OC(F)(F)F)cc1)c1ccc(F)c(C(F)(F)F)n1 (single isomer, unassigned) [Example 55B, (2R)-N-((S or R)-(5-fluoro-6-(trifluoro-methyl)pyridin-2-yl)(4-(trifluoromethoxy)phenyl)methyl)-2-methyl-3-oxopiperazine-1-carboxamide]	15.7
O=C1CN(C(=O)NC(c2ccc(Cl)c(F)c2)c2ccc(F)c(C(F)(F)F)n2)CCN1 (single isomer, unassigned) [Example 54A, N-((R or S)-(4-chloro-3-fluorophenyl)(5-fluoro-6-(trifluoromethyl)pyridin-2-yl)methyl)-3-oxopiperazine-1-carboxamide]	285
O=C1CN(C(=O)NC(c2ccc(OCC(F)(F)F)nc2)c2ccc(F)c(Cl)c2)CCN1 (single isomer, unassigned) [Example 2B, N-((S or R)-(3-chloro-4-fluorophenyl)(6-(2,2,2-trifluoroethoxy)pyridin-3-yl)methyl)-3-oxopiperazine-1-carboxamide]	123
O=C1CN(C(=O)NC(c2ccc(OCC(F)(F)F)nc2)c2ccc(F)c(Cl)c2)CCN1 (single isomer, unassigned) [Example 2A, N-((R or S)-(3-chloro-4-fluorophenyl)(6-(2,2,2-trifluoro-ethoxy)pyridin-3-yl)methyl)-3-oxopiperazine-1-carboxamide]	8.98
O=C1CN(C(=O)NC(c2ccc(F)c(Cl)c2)c2cccc(C(F)(F)F)n2)CCN1 (single isomer, unassigned) [Example 42, N—((R or S)-(3-chloro-4-fluorophenyl)(6-(trifluoromethyl)pyridin-2-yl)methyl)-3-oxopiperazine-1-carboxamide]	32.2
C[C@@H]1C(=O)NCCN1C(=O)NC(c1cnc(C(F)(F)F)c(Cl)c1)c1ccc(F)c(C(F)(F)F)n1 (single isomer, unassigned) [Example 82B]	3.76
O=C1CN(C(=O)NC(c2cnc(C(F)(F)F)c(Cl)c2)c2ccc(F)c(Cl)c2F)CCN1 (single isomer, unassigned) [Example 36, N-((R or S)-(3-chloro-2,4-difluorophenyl)(5-chloro-6-(trifluoro-methyl)pyridin-3-yl)methyl)-3-oxopiperazine-1-carboxamide]	6.97

Other lines, results leading:

IC50 [nM]	Compound
13.5	C[C@@H]1C(=O)NCCN1C(=O)NC(c1ccc(OC(F)(F)F)c(Cl)c1)c1cnn(C(F)(F)F)c1 (single isomer, unassigned) [Example 63B, (2R)-N-((S or R)-(3-chloro-4-(trifluoro-methoxy)phenyl)(1-(trifluoromethyl)-1H-pyrazol-4-yl)methyl)-2-methyl-3-oxopiperazine-1-carboxamide]
13.5	C[C@@H]1C(=O)NCCN1C(=O)NC(c1ccc(C(F)(F)F)nc1)c1ccc(F)c(Cl)c1 (single isomer, unassigned) [Example 16A, (2R)-N-((R or S)-(3-chloro-4-fluorophenyl)(6-(trifluoromethyl)pyridin-3-yl)methyl)-2-methyl-3-oxopiperazine-1-carboxamide]
0.31	C[C@@H]1C(=O)NCCN1C(=O)NC(c1ccc(OC(F)(F)F)c(Cl)c1)c1cnc(C(F)(F)F)c(Cl)c1 (single isomer, unassigned) [Example 22A, (2R)-N-((R or S)-(3-chloro-4-(trifluoro-methoxy)phenyl)(5-chloro-6-(trifluoro-methyl)pyridin-3-yl)methyl)-2-methyl-3-oxopiperazine-1-carboxamide]
43.7	C[C@@H]1C(=O)NCCN1C(=O)NC(c1cnc(C(F)(F)F)nc1)c1ccc(Cl)c(Cl)c1 (single isomer, unassigned) [Example 28B, (2R)-N-((S or R)-(3,4-dichlorophenyl)(2-(trifluoromethyl)pyrimidin-5-yl)methyl)-2-methyl-3-oxopiperazine-1-carboxamide]
890	C[C@@H]1C(=O)NCCN1C(=O)NC(c1ccc(F)c(Cl)c1)c1cnn(CC(F)(F)F)c1 (single isomer, unassigned) [Example 67A]
10.8	C[C@@H]1C(=O)NCCN1C(=O)NC(c1cnc(C(F)(F)F)nc1)c1ccc(Cl)c(Cl)c1 (single isomer, unassigned) [Example 28A, (2R)—N—((R or S)-(3,4-dichlorophenyl)(2-(trifluoromethyl)pyrimidin-5-yl)methyl)-2-methyl-3-oxopiperazine-1-carboxamide]
11.7	C[C@@H]1C(=O)NCCN1C(=O)NC(c1ccc(OC(F)(F)F)c(F)c1)c1ccc(F)c(C(F)(F)F)n1 (single isomer, unassigned) [Example 56A, (2R)-N-((R or S)-(3-fluoro-4-(trifluoro-methoxy)phenyl)(5-fluoro-6-(trifluoro-methyl)pyridin-2-yl)methyl)-2-methyl-3-oxopiperazine-1-carboxamide]
2.22	C[C@@H]1C(=O)NCCN1C(=O)NC(c1ccc(OCC(F)(F)F)nc1)c1ccc(F)c(Cl)c1 (single isomer, unassigned) [Example 3A, (2R)-N-((R or S)-(3-chloro-4-fluorophenyl)(6-(2,2,2-trifluoro-ethoxy)pyridin-3-yl)methyl)-2-methyl-3-oxopiperazine-1-carboxamide]
4	C[C@@H]1C(=O)NCCN1C(=O)NC(c1ccc(OC(F)(F)F)cc1)c1cnc(C(F)(F)F)c(Cl)c1 (single isomer, unassigned) [Example 20B, (2R)-N-((S or R)-(5-chloro-6-(trifluoro-methyl)pyridin-3-yl)(4-(trifluoromethoxy)phenyl)methyl)-2-methyl-3-oxopiperazine-1-carboxamide]
31.7	C[C@@H]1C(=O)NCCN1C(=O)NC(c1ccc(C(F)(F)F)nc1)c1ccc(F)c(Cl)c1 (single isomer, unassigned) [Example 16B, (2R)-N-((S or R)-(3-chloro-4-fluorophenyl)(6-(trifluoromethyl)pyridin-3-yl)methyl)-2-methyl-3-oxopiperazine-1-carboxamide]
15.8	C[C@@H]1C(=O)NCCN1C(=O)NC(c1ccc(OC2CC2)c(F)c1)c1cnc(C(F)(F)F)c(Cl)c1 (single isomer, unassigned) [Example 25B, (2R)-N-((S or R)-(5-chloro-6-(trifluoro-methyl)pyridin-3-yl)(4-cyclopropoxy-3-fluorophenyl)methyl)-2-methyl-3-oxopiperazine-1-carboxamide]
